Reference: patent publication US9040528B2, “Chemical compounds 542” (AstraZeneca AB, priority 2008, dated 2015)

Target: Escherichia coli DNA gyrase A/B tetramer (Escherichia coli (strain K12), UniProt P0AES4+P0AES6)
Assay: DNA gyrase supercoiling activity fluorescence polarisation assay
Format: biochemical
Conditions: 5 nM enzyme, relaxed plasmid, 0.3 mM ATP, ambient temperature; read-out: E. coli DNA gyrase supercoiling IC50
Procedure: DNA Gyrase Supercoiling Activity Fluorescence Polarisation Assay
The supercoiling reactions may be quenched by the addition of 10 microliters/well of 40 nM oligodeoxynucleotide probe in 3× triplex-forming buffer consisting of 150 mM NaCl, and 150 mM sodium acetate at pH 3.5. The oligodeoxynucleotide probe may be 5′-BODIPY-FL-labeled […]. After 60 minutes, the fluorescence anisotropy of the BODIPY-FL may be measured in a Tecan Ultra plate reader, using 485 nm excitation and 535 nm emission filters equipped with polarizers. The IC50 may be determined by nonlinear regression using two control reactions. The first contains no test compound but 0.8% DMSO (100% activity) while the second control reaction contains 5 μM Ciprofloxacin and 0.8% DMSO (0% activity).

Compound | IC50 [nM]
C[C@@H]1CN2c3c(cc4c(-c5cn(C)cn5)noc4c3F)CC3(C(=O)NC(=O)NC3=O)[C@H]2[C@H](C)O1 (relative stereo) [Example 69, (2R,4S,4aS)-rel-11-fluoro-2,4-dimethyl-8-(1-methyl-1H-imidazol-4-yl)-1,2,4,4a-tetrahydro-2′H,6H-spiro[1,4-oxazino[4,3-a][1,2]oxazolo[4,5-g]quinoline-5,5′-pyrimidine]-2′,4′,6′(1′H,3′H)-trione] | 17000
C[C@@H]1CN2c3c(cc4c(-n5cc(C(=O)O)cn5)noc4c3F)CC3(C(=O)NC(=O)NC3=O)[C@H]2[C@H](C)O1 (relative stereo) [Example 186, 1-[(2R,4S,4aS)-rel-11-fluoro-2,4-dimethyl-2′,4′,6′-trioxo-1,1′,2,3′,4,4′,4a,6′-octahydro-2′H,6H-spiro[1,4-oxazino[4,3-a][1,2]oxazolo[4,5-g]quinoline-5,5′-pyrimidin]-8-yl]-1H-pyrazole-4-carboxylic acid] | 7600
Cc1cc(-c2noc3c(F)c4c(cc23)CC2(C(=O)NC(=O)NC2=O)[C@H]2[C@H](C)O[C@H](C)CN42)no1 (relative stereo) [Example 66, (2R,4S,4aS)-rel-11-fluoro-2,4-dimethyl-8-(5-methyl-1,2-oxazol-3-yl)-1,2,4,4a-tetrahydro-2′H,6H-spiro[1,4-oxazino[4,3-a][1,2]oxazolo[4,5-g]quinoline-5,5′-pyrimidine]-2′,4′,6′(1′H,3′H)-trione] | 400
C[C@@H]1CN2c3c(cc4c(C(=O)N5CCS(=O)(=O)CC5)noc4c3F)CC3(C(=O)NC(=O)NC3=O)[C@H]2[C@H](C)O1 (relative stereo) [Example 145, (2R,4S,4aS)-rel-8-[(1,1-dioxidothiomorpholin-4-yl)carbonyl]-11-fluoro-2,4-dimethyl-1,2,4,4a-tetrahydro-2′H,6H-spiro[isoxazolo[4,5-g][1,4]oxazino[4,3-a]quinoline-5,5′-pyrimidine]-2′,4′,6′(1′H,3′H)-trione] | 5200
C[C@@H]1CN2c3c(cc4c(Cn5cncn5)noc4c3F)CC3(C(=O)NC(=O)NC3=O)[C@H]2[C@H](C)O1 (relative stereo) [Example 81, (2R,4S,4aS)-rel-8-((1H-1,2,4-triazol-1-yl)methyl)-11-fluoro-2,4-dimethyl-2,4,4a,6-tetrahydro-1H,1′H-spiro[isoxazolo[4,5-g][1,4]oxazino[4,3-a]quinoline-5,5′-pyrimidine]-2′,4′,6′(3′H)-trione] | 3000
C[C@@H]1CN2c3c(nc4c(-c5nccs5)noc4c3Cl)CC3(C(=O)NC(=O)NC3=O)[C@H]2[C@H](C)O1 (relative stereo) [Example 111, (2R,4S,4aS)-rel-11-chloro-2,4-dimethyl-8-(thiazol-2-yl)-2,4,4a,6-tetrahydro-1H,1′H-spiro[isoxazolo[4,5-g][1,4]oxazino[4,3-a][1,5]naphthyridine-5,5′-pyrimidine]-2′,4′,6′(3′H)-trione] | 700
CCN(CC)c1noc2c(F)c3c(cc12)CC1(C(=O)NC(=O)NC1=O)[C@H]1[C@H](C)O[C@H](C)CN31 (relative stereo) [Example 23, (2R,4S,4aS)-rel-8-(diethylamino)-11-fluoro-2,4-dimethyl-1,2,4,4a-tetrahydro-2′H,6H-spiro[isoxazolo[4,5-g][1,4]oxazino[4,3-a]quinoline-5,5′-pyrimidine]-2′,4′,6′(1′H,3′H)-trione] | 4300
C[C@@H]1CN2c3c(cc4c(NCC5CCOCC5)noc4c3F)CC3(C(=O)NC(=O)NC3=O)[C@H]2[C@H](C)O1 (relative stereo) [Example 19, (2R,4S,4aS)-rel-11-fluoro-2,4-dimethyl-8-[(tetrahydro-2H-pyran-4-ylmethyl)amino]-1,2,4,4a-tetrahydro-2′H,6H-spiro[1,4-oxazino[4,3-a][1,2]oxazolo[4,5-]quinoline-5,5′-pyrimidine]-2′,4′,6′(1′H,3′H)-trione] | 2900
C[C@@H]1CN2c3c(cc4c(C(=O)NC5CC5)noc4c3F)CC3(C(=O)NC(=O)NC3=O)[C@H]2[C@H](C)O1 (relative stereo) [Example 150, (2R,4S,4aS)-rel-N-cyclopropyl-11-fluoro-2,4-dimethyl-2′,4′,6′-trioxo-2,2′,3′,4,4a,4′,6,6′-octahydro-1H,1′H-spiro[isoxazolo[4,5-g][1,4]oxazino[4,3-a]quinoline-5,5′-pyrimidine]-8-carboxamide] | 1300
C[C@H]1CN2c3c(cc4c(-c5ccncn5)noc4c3F)CC3(C(=O)NC(=O)NC3=O)[C@@H]2[C@@H](C)O1 [Example 74(a), (2S,4R,4aR)-11-fluoro-2,4-dimethyl-8-(pyrimidin-4-yl)-2,4,4a,6-tetrahydro-1H,1′H-spiro[isoxazolo[4,5-g][1,4]oxazino[4,3-a]quinoline-5,5′-pyrimidine]-2′,4′,6′(3′H)-trione] | 27000
C[C@@H]1CN2c3c(cc4c(C(N)=S)noc4c3F)CC3(C(=O)NC(=O)NC3=O)[C@H]2[C@H](C)O1 (relative stereo) [Intermediate 575, (2R,4S,4aS)-rel-11-fluoro-2,4-dimethyl-2′,4′,6′-trioxo-1,1′,2,3′,4,4′,4a,6′-octahydro-2′H,6H-spiro[1,4-oxazino[4,3-a][1,2]oxazolo[4,5-g]quinoline-5,5′-pyrimidine]-8-carbothioamide] | 1000
C[C@@H]1CN2c3c(cc4c(N5CCNCC5)noc4c3F)CC3(C(=O)NC(=O)NC3=O)[C@H]2[C@H](C)O1 (relative stereo) [Example 179, (2R,4S,4aS)-rel-11-fluoro-2,4-dimethyl-8-(piperazin-1-yl)-1,2,4,4a-tetrahydro-2′H,6H-spiro[isoxazolo[4,5-g][1,4]oxazino[4,3-a]quinoline-5,5′-pyrimidine]-2′,4′,6′(1′H,3′H)-trione] | 2000
C[C@@H]1CN2c3c(cc4c(-c5cnccn5)noc4c3F)CC3(C(=O)NC(=O)NC3=O)[C@H]2[C@H](C)O1 (relative stereo) [Example 165, (2R,4S,4aS)-rel-11-fluoro-2,4-dimethyl-8-(pyrazin-2-yl)-1,2,4,4a-tetrahydro-2′H,6H-spiro[1,4-oxazino[4,3-a][1,2]oxazolo[4,5-g]quinoline-5,5′-pyrimidine]-2′,4′,6′(1′H,3′H)-trione] | 400
C[C@@H]1CN2c3c(cc4c(-c5ccnc(N6CCOCC6)n5)noc4c3F)CC3(C(=O)NC(=O)NC3=O)[C@H]2[C@H](C)O1 [Example 176, (2R,4S,4aS)-11-fluoro-2,4-dimethyl-8-(2-morpholinopyrimidin-4-yl)-2,4,4a,6-tetrahydro-1H,1′H-spiro[isoxazolo[4,5-g][1,4]oxazino[4,3-a]quinoline-5,5′-pyrimidine]-2′,4′,6′(3′H)-trione] | 3200
C[C@@H]1CN2c3c(nc4c(-c5ccccn5)noc4c3Cl)CC3(C(=O)NC(=O)NC3=O)[C@H]2[C@H](C)O1 (relative stereo) [Example 107, (2R,4S,4aS)-rel-11-chloro-2,4-dimethyl-8-(pyridyin-2-yl)-2,4,4a,6-tetrahydro-1H,1′H-spiro[isoxazolo[4,5-g][1,4]oxazino[4,3-a][1,5]naphthyridine-5,5′-pyrimidine]-2′,4′,6′(3′H)-trione] | 1400
